According to publication PMC9804387, “Substrate Peptidomimetic Inhibitors of P. falciparum Plasmepsin X with Potent Antimalarial Activity” (Chemmedchem, 2022):
Structures can show the parent of a compound that is named as a salt.

What was measured:
[1] = tested on: P. falciparum (Pf) 3D7 parasites; assay: P. falciparum LDH viability assay; type: cell-based; conditions: for EC50: Plasmodium falciparum, 3D7, 72 h, LDH activity, 72 h at 37 °C, mean and SD of 3 independent experiments
Method: P. falciparum LDH Viability Assay. P. falciparum LDH viability assays were performed as previously described.[40] Briefly, a ten‐point 1 : 3‐fold dilution series of the compounds were pre‐dispensed in 384‐well assay plates (Grenier), and RPMI/AlbuMAX growth media inoculated with synchronized ring stage P. falciparum parasites. 10 mM compound stocks were transferred into the assay plates such that the starting concentration was 10 μM. Plates were incubated for 72 h and then frozen at −80 °C overnight. Lactate dehydrogenase (LDH) activity was quantified with APAD by measuring absorbance of NBT at 650 nm. Data were normalized to percent growth inhibition using the positive control of 0.1 % DMSO alone and the negative control of 100 nM chloroquine. Half‐maximal effective concentration (EC50) values were calculated by GraphPad Prism (8.0.2) software using a nonlinear regression four‐parameter fit analysis using a sigmoidal dose response (variable slope).

BACE‐1 = biological target: T1, BACE‐1 (Homo sapiens, UniProt P56817); assay: BACE-1 FRET protease assay; type: biochemical; conditions: mean and SD of 4 replicate FRET experiments, 37 °C; highest concentration tested 11 μM
T1 construct: purchased Sigma S4195

Pf 3D7 = tested on: Pf 3D7; parameters: method as in PMID 29074775, PMID 32109369, PMID 23260352, PMID 29519896; conditions: Figure 1, described in literature; cited from earlier work
PMX = conditions: cited from earlier work
PMIX = tested on: PMIX; parameters: method as in PMID 29074775, PMID 32109369, PMID 23260352, PMID 29519896; conditions: Figure 1, described in literature; cited from earlier work
in vitro = type: cell-based; conditions: human
Method: HepG2 Cytotoxicity Assay. HepG2 cytotoxicity assays were performed as previously described.[41] Briefly, human hepatocyte HepG2 cells were cultured in DMEM supplemented with 10 % FCS at 37 °C and 5 % CO2 in a humidified incubator. Cells were seeded at 1000 cells/well in 50 μL in 384‐well plates (Grenier) and compounds incubated in ten‐point 1 : 2‐fold dilution series for 48 h. Cytotoxicity was determined using Cell Titer‐Glo (Promega), normalized to DMSO alone controls (100 % viability) and control compound Bortezomib (0 % viability at 10 μM). CC50 values were calculated by GraphPad Prism (8.0.2) software using a nonlinear regression four‐parameter fit analysis with the sigmoidal dose response (variable slope).

[2] = tested on: PMIX processing of the ASP protein; assay: ASP processing inhibition assay in parasites (western blot, anti-HA); type: cell-based, P. falciparum; conditions: 38 at 10 μM, HA‐tagged ASP parasites
Method: (§1) In this experiment, synchronized late trophozoite/early schizont stage parasites, expressing HA‐tagged ASP, were incubated with 38 (10 μM), the positive control WM382 (1) (2.5 nM) (a dual potent inhibitor of PMIX and PMX) and the DMSO vehicle control. Parasites from each treatment condition were then lysed and the processing of the known PMX and PMIX substrates were detected by western blot as a corollary of protease activity.
P. falciparum ASP and SERA5 Processing Inhibition Assay. P. falciparum substrate processing inhibition assays were performed as previously described.[28] Synchronized ring stage cultures were treated with test compounds 38 (10 μM) and WM382 (2.5 nM)[28] or DMSO as a vehicle control. The parasite cultures were grown to the schizont stage before passing over LD magnetic columns (Miltenyi Biotech) to remove uninfected erythrocytes. Parasites were eluted from columns with RPMI 1640 (in‐house) culture medium to which the appropriate inhibitor at the same concentration had been added. Eluted parasites were adjusted to 5×10^6 schizonts/mL and 150 μL added per well of a 96‐well flat‐bottomed culture plate. […] HA‐tagged apical sushi protein (ASP) was detected in the merozoite fraction with anti‐HA mAb and SERA5 was detected in the supernatant fraction with an anti‐SERA5 polyclonal Ab. […]

[3] = tested on: SERA5 processing by SUB1, indicative of upstream activity by PMX; assay: SERA5 processing inhibition assay in parasites (western blot, anti-SERA5); type: cell-based, P. falciparum; conditions: 38 at 10 μM
Excerpt: PMX and PMIX ligand cleavage in P. falciparum parasites. It was next determined whether 38 could inhibit PMX and PMIX processing of known invasion and egress ligands in P. falciparum parasites. […] SERA5 is not a direct substrate of PMX, but is processed by SUB1 which itself is activated by PMX. The degree of downstream processing of SERA5 by SUB1 is indicative of PMX activity.
as §1
P. falciparum ASP and SERA5 Processing Inhibition Assay. P. falciparum substrate processing inhibition assays were performed as previously described.[28] Synchronized ring stage cultures were treated with test compounds 38 (10 μM) and WM382 (2.5 nM)[28] or DMSO as a vehicle control. […] HA‐tagged apical sushi protein (ASP) was detected in the merozoite fraction with anti‐HA mAb and SERA5 was detected in the supernatant fraction with an anti‐SERA5 polyclonal Ab. […]

T1 sequence (P56817 46-460 limits assumed): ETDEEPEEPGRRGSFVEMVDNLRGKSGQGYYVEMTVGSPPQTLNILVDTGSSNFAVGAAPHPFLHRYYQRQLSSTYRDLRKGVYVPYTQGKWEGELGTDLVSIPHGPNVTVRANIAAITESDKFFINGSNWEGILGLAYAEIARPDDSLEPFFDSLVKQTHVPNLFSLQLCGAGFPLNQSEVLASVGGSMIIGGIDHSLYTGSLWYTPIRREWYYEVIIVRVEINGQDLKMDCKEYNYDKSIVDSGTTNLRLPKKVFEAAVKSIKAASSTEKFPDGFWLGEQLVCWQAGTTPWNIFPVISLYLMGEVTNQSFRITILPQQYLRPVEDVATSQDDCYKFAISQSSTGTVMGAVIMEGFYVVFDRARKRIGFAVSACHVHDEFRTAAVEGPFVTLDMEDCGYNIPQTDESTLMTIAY

Compound | EC50 [1] [µM] | IC50 (BACE‐1) [µM] | EC50 (Pf 3D7) [µM] | IC50 (PMX; Figure 1, described in literature) [µM] | selectivity for PMX compared to PMIX (PMX) [fold] | IC50 (PMIX) [µM] | fold decrease in parasite activity compared to PMX inhibition ([1]; Pf 3D7 EC50 versus PMX IC50) [fold] | CC50 at 48 h (in vitro) [µM] | ASP processing by PMIX (western blot) [2] | SERA5 processing (western blot) [3]
C[C@@H](NC[C@@H](O)[C@H](Cc1ccccc1)NC(=O)c1ccc(C(=O)N2CCN(C)CC2)cc1)c1ccccc1 [Compd 2, reference compound] | 0.001 | > 11 | 0.0006 | 0.0014 | > 500 | 0.65 | – | – | – | –
C[C@@H](NC[C@@H](O)[C@H](Cc1ccccc1)NC(=O)[C@H](CO)NC(=O)OCc1ccccc1)c1ccccc1 [Compd 38, Cbz‐Ser‐Phe‐HEA‐Bn(CH3)⋅TFA] | 0.09 | > 11 | – | – | – | – | 2 | > 40 | partial inhibition of PMIX processing | complete inhibition of SERA5 processing
